Columns and labels:
Type in all cases: cell-based
[1] = tested on: SKOV3 ovarian cancer cells; experiment: ZN-c3 dose response, percent cell density (cell titer glow), CRISPR knockout of PPP2R1A vs non-targeting guide RNA; conditions: Homo sapiens, SK-OV-3, 72 h
Description: FIG. 13 depicts the percent cell density of SKOV3 ovarian cancer cells after treatment with a 10-point dose response of ZN-c3 for 72 hours, comparing cells transduced with a non-targeting guide RNA to against those with genetic knockout of PPP2R1A after transduction with a CRISPR guide RNA targeting PPP2R1A. Percent cell density is calculated using cell titer glow analysis. PPP2R1A CRISPR knockout cells have approximately 1.7-fold increase in sensitivity to ZN-c3 (TABLE 7).
Having observed that siRNA mediated knockdown of PPP2R1A sensitized cancer cell lines to treatment with ZN-c3, it was also of interest to evaluate if CRISPR mediated PPP2R1A knockout produced a similar effect. […] Percent cell density was calculated using cell titer glow analysis.
The ovarian cancer cell line SKOV3 was treated with a CRISPR guide RNA targeting PPP2R1A or nontargeting guide RNA and transfected cells were assessed for sensitivity to ZN-c3 by measurement of reduction in percent cell density (FIG. 13). CRISPR mediated knockout of PPP2R1A was evaluated by comparison of PPP2R1A protein expression via Western blot in conditions treated with nontargeting guide RNA and PPPR12A targeting CRISPR guide RNA with beta actin as a control (FIG. 14).

[2] = tested on: OV17R ovarian cancer cells; experiment: Percent inhibition of cell growth, ZN-c3, LB-100 or ZN-c3+LB-100 (cell titer glow); conditions: OV17R (PPP2R1A S256F), 72 hours; ZN-c3 75 nM, LB-100 1 μM
Description: (§1) FIG. 19 depicts the percent inhibition of cell growth in OV17R ovarian cancer cells after treatment with ZN-c3 alone, the PP2A catalytic inhibitor LB-100 alone, or the combination of ZN-c3+LB-100. OV17R has the PPP2R1A missense mutation S256F. Percent inhibition is calculated using cell titer glow analysis.
Following observations that both knockdown and knockout of PPP2R1A could sensitize cancer cells to Zn-C3, the effects of pharmacological inhibition of PPP2R1A with the catalytic inhibitor LB-100 were evaluated. Various cancer cell lines were treated with ZN-c3 alone, the PP2A catalytic inhibitor LB-100 alone, or the combination of ZN-c3+LB-100. As in Example 1 and Example 2, the treatment period was 72 hours and percent inhibition was calculated using cell titer glow analysis.
The ovarian cancer cell line OV17R was assessed for sensitivity to ZN-c3 alone, LB-100 alone, or the combination of ZN-c3+LB-100 (FIG. 19).

[3] = tested on: HEC-59 endometrial cancer cells; experiment: as above; conditions: HEC-59 (PPP2R1A wild-type), 72 hours; ZN-c3 400 nM, LB-100 1 μM
Description: as §1, with “18” for “19”, “HEC-59 endometrial” for “OV17R ovarian”, “HEC-59 cell line is” for “OV17R has the”, “wild-type. […]” for “missense mutation S256F.”
Various cancer cell lines were treated with ZN-c3 alone, the PP2A catalytic inhibitor LB-100 alone, or the combination of ZN-c3+LB-100. As in Example 1 and Example 2, the treatment period was 72 hours and percent inhibition was calculated using cell titer glow analysis.
The endometrial cancer cell line HEC-59 was assessed for sensitivity to ZN-c3 alone, LB-100 alone, or the combination of ZN-c3+LB-100 (FIG. 18).

A427 cells = experiment: ZN-c3 dose response, percent cell density (cell titer glow), PPP2R1A siRNA vs scrambled control; conditions: Homo sapiens, A-427, 72 h
Description: (§2) FIG. 1 depicts the percent cell density of A427 (a first non-small cell lung cancer cell line) cells after treatment with a 10-point dose response of ZN-c3 for 72 hours, comparing cells transfected with siRNA to PPP2R1A against those transfected with a scrambled control siRNA. Percent cell density is calculated using cell titer glow analysis. PPP2R1A siRNA transfected cells have approximately 3.5-fold increase in sensitivity to ZN-c3 (TABLE 1).
(§3) The effect of PPP2R1A knockdown on influencing cancer cell susceptibility to ZN-c3 was evaluated. Various cancer cell lines were transfected with PPP2R1A siRNA or control scrambled siRNA and the cells were treated with a 10 point dose response of ZN-c3 for 72 hours. Percent cell density was calculated using cell titer glow analysis. The PPP2R1A siRNA targeted the following bases Chr.19: 52189802-52226425. SiRNA transfection was started 48 hours prior to treatment with ZN-c3. […]
(§4) A first non-small cell lung cancer cell line A427 was treated with PPP2R1A siRNA or control siRNA and transfected cells were assessed for sensitivity to ZN-c3 by measurement of reduction in percent cell density (FIG. 1). PPP2R1A siRNA mediated knockdown of PPP2R1A was evaluated by comparison of PPP2R1A expression in conditions treated with siCTRL and siPPPR12A (FIG. 2).

H1975 cells = experiment: as above; conditions: Homo sapiens, NCI-H1975, 72 h
Description: as §2, with “FIG. 3” for “FIG. 1”, “of H1975” for “of A427”, “(a second” for “(a first”, “approximately 3.7-fold” for “approximately 3.5-fold”, “(TABLE 2).” for “(TABLE 1).”
as §3
as §4, with “second” for “first”, “H1975” for “A427”, “3).” for “1).”, “4).” for “2).”

EC50 ([1]; sgNT (non-targeting guide RNA)): 386 nM
EC50 ([1]; sgPPP2R1A (CRISPR knockout)): 224 nM
EC50 (H1975 cells; siCTRL): 560 nM
EC50 (H1975 cells; siPPP2R1A): 150 nM
Structure (SMILES): C=CCn1c(=O)c2cnc(Nc3ccc(N4CCN(C)CC4)cc3)nc2n1-c1ccc2c(n1)[C@@](O)(CC)CC2 [ZN-c3, (R)-2-allyl-1-(7-ethyl-7-hydroxy-6,7-dihydro-5H-cyclopenta[b]pyridin-2-yl)-6-((4-(4-methylpiperazin-1-yl)phenyl)amino)-1,2-dihydro-3H-pyrazolo[3,4-d]pyrimidin-3-one]
percent inhibition of cell growth [2]: approximately 30%
percent inhibition of cell growth [3]: approximately 25%
EC50 (A427 cells; siCTRL): 196 nM
EC50 (A427 cells; siPPP2R1A): 55.4 nM

Reference: US20250208149A1, “WEE1 COMPOUND FOR TREATING UTERINE SEROUS CARCINOMA” (Recurium IP Holdings, LLC, priority 2022, published 2025)
